Measurements: BindingDB's records for doi:10.7270/Q2B27SRF (Broad Institute, 2010)
Where a name gives a salt, the structure may show the parent alone.

What follows are compounds tested against Serine/threonine-protein kinase 33 (Homo sapiens, UniProt Q9BYT3) (assay: inhibition of STK33 phosphorylation of MBP – biochemical, luminescence, cell-free, retest, dose response (AID 2821)).
Serine/threonine-protein kinase 33, sequence (Q9BYT3 whole entry): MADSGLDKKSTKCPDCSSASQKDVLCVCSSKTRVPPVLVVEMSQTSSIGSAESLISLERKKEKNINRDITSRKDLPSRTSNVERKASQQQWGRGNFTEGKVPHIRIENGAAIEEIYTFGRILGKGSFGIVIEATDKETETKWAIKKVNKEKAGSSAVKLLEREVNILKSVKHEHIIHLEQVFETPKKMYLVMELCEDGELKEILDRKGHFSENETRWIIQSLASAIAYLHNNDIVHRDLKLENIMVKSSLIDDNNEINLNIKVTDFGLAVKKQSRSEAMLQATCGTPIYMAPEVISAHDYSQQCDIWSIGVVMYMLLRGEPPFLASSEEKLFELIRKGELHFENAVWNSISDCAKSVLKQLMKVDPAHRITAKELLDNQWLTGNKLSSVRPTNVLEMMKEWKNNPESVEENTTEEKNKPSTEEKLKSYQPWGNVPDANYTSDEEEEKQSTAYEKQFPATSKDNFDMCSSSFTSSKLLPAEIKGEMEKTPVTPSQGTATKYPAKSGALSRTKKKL

| Structure (SMILES) | EC50 [µM] |
| --- | --- |
| COc1ccc(O)c(-c2nc(N)nc(N)n2)c1 [(6Z)-6-[4,6-bis(azanyl)-1H-1,3,5-triazin-2-ylidene]-4-methoxy-cyclohexa-2,4-dien-1-one] | 8.14 |
| COC(=O)c1cccc2c1-c1ccccc1C2N=O (configuration not stated) [(9Z)-9-hydroximinofluorene-4-carboxylic acid methyl ester] | 11.8 |
| C[C@H]1CCCC(=O)CCCC=Cc2cc(O)cc(O)c2C(=O)O1 [(11S)-11-methyl-15,17-bis(oxidanyl)-12-oxabicyclo[12.4.0]octadeca-1(18),2,14,16-tetraene-7,13-dione] | 44.6 |
| CCn1cc(/C=C/C(=O)c2ccc(O)cc2)c(C)n1 [(E)-3-(1-ethyl-3-methyl-4-pyrazolyl)-1-(4-hydroxyphenyl)-2-propen-1-one] | 9.79 |
| CN(C)/C=C/C(=O)c1ccc2noc(-c3cccc(F)c3)c2c1 [(E)-3-(dimethylamino)-1-[3-(3-fluorophenyl)-2,1-benzoxazol-5-yl]-2-propen-1-one] | 18.7 |
| COc1ccc(-c2onc3ccc(C(=O)/C=C/N(C)C)cc23)cc1 [(E)-3-(dimethylamino)-1-[3-(4-methoxyphenyl)-2,1-benzoxazol-5-yl]-2-propen-1-one] | 5.29 |
| CC[C@H](CO)Nc1nc(Nc2cccc(Cl)c2)c2ncn(C(C)C)c2n1 [(R)-2-(6-(3-chlorophenylamino)-9-isopropyl-9H-purin-2-ylamino)butan-1-ol] | 2.49 |
| Oc1cc(O)cc(/C=C/c2ccc(O)cc2O)c1 [(oxyresveratrol)4-[(E)-2-(3,5-dihydroxyphenyl)vinyl]benzene-1,3-diol] | 9.66 |
| O=C1NC2c3ccccc3C(=O)N2c2c1cnn2-c1ccccc1 (configuration not stated) [MLS000028140] | > 120 |
| c1coc(C2Nc3ccccc3-c3nc4ccccc4n32)c1 (configuration not stated) [MLS000055458] | 30.8 |
| CCCn1c(NC(=O)c2cccc(S(=O)(=O)N3CCCC3)c2)nc2ccccc21 [MLS000057540] | 0.769 |
| CN(C)c1nc2sc3c(c2c(=O)n1C)CC(C)(C)OC3 [MLS000071412] | > 120 |
| COc1ccccc1NC(=O)Nc1ncccc1C [MLS000072334] | 7.93 |
| CCOC(=O)Cc1nnc(NC(=O)COc2ccc(C)cc2)s1 [MLS000082525] | > 120 |
| c1cncc(C2Nc3ccccc3-c3nc4ccccc4n32)c1 (configuration not stated) [MLS000098034] | 27.1 |
| CN1CCN(C=NC2=NN(c3cccc(C(F)(F)F)c3)CC2)CC1 [MLS000418536] | > 120 |
| S=C(Nc1ccccc1)Nc1ccc2c[nH]nc2c1 [MLS000516600] | 19.5 |
| CCOc1cc(C=C(C#N)c2n[nH]c(N)c2C#N)ccc1O [MLS000523215] | 8.62 |
| COc1ccc(C(=O)ON=C(C)c2cccs2)cc1 [MLS000544771] | 29.1 |
| CN1CCc2c(sc3c2c(=O)n(-c2ccccc2)c2n[nH]c(=S)n32)C1 [MLS000558136] | > 120 |
| Cc1c(/C=C/C(=O)c2ccc(O)cc2)cnn1C [MLS000578554] | 22.2 |
| Cc1cccc(C(=N)NOC(=O)c2ccc3c(c2)OCO3)c1 [MLS000579340] | 37.3 |
| O=C1C=CC(=CCc2ccnc3ccccc23)C=C1 [MLS000705243] | 11.5 |
| COc1ccc(/C=C/c2nc3ccccc3n2C)cc1 [MLS000719304] | 26.1 |
| COc1cc(C=Nn2c(-c3cc(C)[nH]n3)n[nH]c2=S)ccc1O [MLS000778764] | 27.6 |
| O=C1/C(=C/c2ccc(O)c(O)c2)Oc2cc(O)ccc21 [MLS000863576] | 9.63 |

| Structure (SMILES) | EC50 [µM] |
| --- | --- |
| CCC(C(=O)Nc1ccc2[nH]ncc2c1)c1ccccc1 (configuration not stated) [MLS001001015] | 9.54 |
| COc1ccc(NC(=S)Nc2ccc3cn[nH]c3c2)cc1 [MLS001005420] | > 120 |
| CN(C)S(=O)(=O)c1cccc(NC(=S)Nc2ccc3cn[nH]c3c2)c1 [MLS001033726] | 38.7 |
| OCCN1CCN(c2nc(-c3ccccc3O)nc3ccccc23)CC1 [MLS001165184] | 23.1 |
| CCCCCCCCCCC[N+](C)(C)CC/C=C1/c2ccccc2Sc2ccc(Cl)cc21 [MLS001165405] | > 120 |
| COc1cccc(-c2onc3ccc(C(=O)/C=C/N(C)C)cc23)c1 [MLS001165915] | 12 |
| O=C(O)c1cc(N=NCc2c(O)ccc3ccccc23)ccc1Cl [MLS001173801] | 32.3 |
| Cc1nc[nH]c1C(=O)NN=Cc1c(Cl)cccc1Cl [MLS001182271] | > 120 |
| CC1CCN(C2=NC(=O)/C(=C/c3ccc(O)cc3)S2)CC1 [MLS001205076] | 10.4 |
| Cc1ccc(C(=O)O/N=C(\N)c2ccccn2)c(Cl)c1 [MLS001206211] | 32.2 |
| CC(=O)N(C)c1ccc(N=Cc2c(O)ccc3ccccc23)cc1 [MLS001212262] | 3.76 |
| O=C(NCCCO)c1cc2c([nH]c3ccccc32)c(-c2ccccc2)n1 [MLS001214182] | 23.4 |
| CN1CCCC1CCNc1ccc2oc3ccccc3c(=O)c2c1 (configuration not stated) [MLS001249997] | > 120 |
| CCCCC(CC)CNC(=N)NC(=N)NCCCCCCNC(=N)NC(=N)NCC(CC)CCCC (configuration not stated) [MLS002153995] | > 120 |
| COc1cc(C(=O)NC2CCN(C)CC2)ccc1Nc1ncc2c(n1)N(C1CCC(O)CC1)CCC(=O)N2C (configuration not stated) [MLS002232305] | 8.38 |
| CCOc1ccc(Nc2nc(N)c3ccccc3n2)cc1 [N2-(4-ethoxyphenyl)quinazoline-2,4-diamine;hydrochloride] | > 120 |
| c1ccc(Nc2ccnc(Nc3ccccc3)n2)cc1 [N*2*,N*4*-Diphenyl-pyrimidine-2,4-diamine] | 14.9 |
| Cc1cc(O)ccc1NS(=O)(=O)c1ccc2c3c(cccc13)C(=O)N2 [N-(2-methyl-4-oxidanyl-phenyl)-2-oxidanylidene-1H-benzo[cd]indole-6-sulfonamide] | 19.2 |
| CCOc1ccccc1C(=O)Nc1cc(Cl)ccc1O [N-(5-chloranyl-2-oxidanyl-phenyl)-2-ethoxy-benzamide] | 6.82 |
| CCn1c2ccc(C(C)N=O)cc2c2cc(C(C)N=O)ccc21 (configuration not stated) [N-[1-[9-ethyl-6-(C-methyl-N-oxidanyl-carbonimidoyl)carbazol-3-yl]ethylidene]hydroxylamine] | > 120 |
| O=C(Nc1ccccc1-c1nc2ccccc2[nH]c1=O)c1cccs1 [N-[2-(3-oxo-4H-quinoxalin-2-yl)phenyl]-2-thiophenecarboxamide] | 2.1 |
| CN1CCN(c2ccc(NC(=O)c3ccc(-c4cccc([N+](=O)[O-])c4)o3)cc2)CC1 [N-[4-(4-methylpiperazin-1-yl)phenyl]-5-(3-nitrophenyl)furan-2-carboxamide] | 20.2 |
| CS(=O)(=O)Nc1ccc(-c2cc(C=C3SC(N)=NC3=O)c[nH]c2=O)cc1 [N-[4-[5-[(Z)-(2-azanyl-4-oxidanylidene-1,3-thiazol-5-ylidene)methyl]-2-oxidanylidene-1H-pyridin-3-yl]phenyl]methanesulfonamide] | 8.09 |
| C=CC(=O)Nc1ccc(Nc2nc(NC3CCC(N(C)C)CC3)nc3c2ncn3C(C)C)cc1 (configuration not stated) [N-[4-[[2-[[4-(dimethylamino)cyclohexyl]amino]-9-propan-2-yl-purin-6-yl]amino]phenyl]prop-2-enamide] | 0.883 |
| C=CC(=O)Nc1ccc(CN2C(=O)N(c3c(Cl)c(OC)cc(OC)c3Cl)Cc3cnc(NCCCCN(CC)CC)nc32)cc1 [N-[4-[[3-[2,6-bis(chloranyl)-3,5-dimethoxy-phenyl]-7-[4-(diethylamino)butylamino]-2-oxidanylidene-4H-pyrimido[4,5-d]pyrimidin-1-yl]methyl]phenyl]prop-2-enamide] | 0.618 |
| COc1ccc(-c2oc3ncnc(NCCCN(C)C)c3c2-c2ccc(OC)cc2)cc1 [N-[5,6-bis(4-methoxyphenyl)furo[2,3-d]pyrimidin-4-yl]-N',N'-dimethyl-propane-1,3-diamine] | 33.6 |

| Structure (SMILES) | EC50 [µM] |
| --- | --- |
| COC(=O)Nc1nnc(Cc2ccccc2)s1 [N-[5-(phenylmethyl)-1,3,4-thiadiazol-2-yl]carbamic acid methyl ester] | > 120 |
| Cc1occc1C(=O)NN=Cc1ccc(N(C)C)cc1 [N-[[4-(dimethylamino)phenyl]methylideneamino]-2-methylfuran-3-carboxamide] | > 120 |
| Cc1cc(N2CCN(C)CC2)nc2ccc(NC(=O)c3ccc(Br)o3)cc12 [SMR000022431] | 10.3 |
| O=C1c2ccccc2-c2onc3ccc(NCCCn4ccnc4)c1c23 [SMR000044769] | 8.03 |
| O=C1c2c(O)ccc(O)c2C(=O)c2c(NCCNCCO)ccc(NCCNCCO)c21 [SMR000058480] | 5.88 |
| c1cncc(Nc2nc(-c3cccnc3)cs2)c1 [SMR000077836] | 26.6 |
| Cc1cccc(-c2nc3ccccc3c3nncn23)c1 [SMR000106108] | 22.5 |
| O=C1C=CC(O)(c2cc(=O)c3c(O)cc(O)cc3o2)C=C1 [SMR000156275] | > 120 |
| COc1ccc(C(=O)ON=C(C)c2ccccc2)cc1 [SMR000159704] | 68.2 |
| O=C(O)c1cccc(Nc2nc(-c3cccnc3)nc3ccccc23)c1 [SMR000172180] | 32.5 |
| N=c1c2c(-c3ccccc3)c(-c3ccccc3)oc2ncn1Cc1ccco1 [SMR000176070] | > 120 |
| O=C1Nc2ccccc2C1=Cc1cnc[nH]1 [SMR000180717] | 7.94 |
| O=C1N=C(NCc2ccccc2)SC1=Cc1ccc(O)cc1 [SMR000217101] | 2.11 |
| Cc1sc2ncnc(N=NCc3cccc(O)c3)c2c1C [SMR000219295] | 17 |
| Cc1ccc(NC(=O)COC(=O)c2cc(Cl)ccc2Cl)c(Br)c1 [SMR000259824] | > 120 |
| CC(C)N=C(S)Nc1ccc2c[nH]nc2c1 [SMR000261130] | > 120 |
| S=C(Nc1cccc(Cl)c1)Nc1ccc2cn[nH]c2c1 [SMR000261299] | > 120 |
| CCc1ccc(NC(S)=Nc2ccc3c[nH]nc3c2)cc1 [SMR000261301] | 9.41 |
| CCNC(=S)Nc1ccc2cn[nH]c2c1 [SMR000261305] | 49.7 |
| O=S(=O)(O)c1cccc(N=Nc2c(O)ccc3ccccc23)c1 [SMR000273743] | 3.46 |
| O=C1NC(=O)/C(=C\c2ccc(O)cc2O)S1 [SMR000274064] | 8.73 |
| O=C(O)Cn1cc(C=c2sc3nc4ccccc4n3c2=O)c2ccccc21 [SMR000298358] | 14.2 |
| N#CC(C(=O)c1ccco1)c1nc2ccccc2[nH]1 (configuration not stated) [SMR000305206] | 8.49 |
| Cc1ccc2c(c1)/C(=C/c1ccco1)C(=O)N2 [SMR000312107] | 38.9 |
| O=C1NC(=O)/C(=C/c2ccc(O)cc2)S1 [SMR000324608] | 12.4 |
